In PubChem BioAssay AID179 (DTP/NCI, 2004) one finds EC50, IC50 and outcome data, which are given here for 53 compounds.

For this assay, the system named is CEM cells HIV-1 protection, formazan growth assay. The assay can be described thus: NCI AIDS Antiviral Assay. The conditions noted are these: for IC50: measured here: growth of uninfected CEM cells. In short, it runs like this: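 Human CEM cells, uninfected and HIV-1-infected, exposed to five drug concentrations; growth measured by soluble formazan assay and scored as percent protection from infection, with protecting compounds retested.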

Active and inactive are the calls of the source.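 How the source made its calls: active means compounds giving half or more protection of infected cells from virus-caused growth loss, again on retest; inactive means the rest.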

A word on the EC50: it is the concentration giving half of the maximal effect. For orientation: IC50 means the concentration at which inhibition is half-maximal. A low value points to greater potency. For `Cc1cc2c(cc1-c1cc3c(cc1C)C(C(C)C)=C(O)C(=O)/C3=C\Nc1ccccn1)/C(=C/Nc1ccccn1)C(=O)C(O)=C2C(C)C`, the EC50 is greater than 100 µM and the IC50 was 45.7 µM. Taken in the same sequence, the figures for `Brc1ccc(-c2cc3c(cc2C2SCCS2)OCO3)cc1` were greater than 67.6 µM and greater than 67.6 µM.

On to `C/C(=C\c1ccc([N+](=O)[O-])cc1)C(=O)O`, for which the EC50 was greater than 174 µM and the IC50 was greater than 174 µM. Regarding `O=C1CCC2CCC1C2` (stereo unspecified), the EC50 was greater than 200 µM and the IC50 is greater than 200 µM. For `COC(=O)C(=O)C(C(=O)C1=NS(=O)(=O)c2cc(S(N)(=O)=O)c(Cl)cc2N1)c1nc2ccc(C(=O)c3ccccc3)cc2[nH]c1=O` (stereo unspecified), the EC50 is greater than 195 µM and the half-inhibitory concentration (IC50) is 49 µM. For the compound `CCCCCCCCCCCC(=O)NCc1ccc(OC(=O)CCCCCCCCCCC)c(OC)c1`, the EC50 is greater than 200 µM and the IC50 came to 40.7 µM. Taken in the same sequence, the figures for `C[CH2][Ge]([CH2]C)([CH2]C)[O]C(=O)CCC(=O)[O][Ge]([CH2]C)([CH2]C)[CH2]C` were greater than 214 µM and greater than 214 µM. `C[C@@H]1CC(=O)[C@@]2(C)[C@](O)(CCC3O[C@]32C)[C@@]12CC(c1ccoc1)OC2=O` (stereo partly specified): the EC50 is greater than 200 µM and the IC50 worked out at 30.9 µM. Taken in the same sequence, the figures for `O=C1NC(=O)C(C(=O)Nc2ccc(Cl)cc2)c2ccccc21` (stereo unspecified) were greater than 200 µM and 129 µM. Taken in the same sequence, the figures for `CC1=C(C(=O)NCc2ccccc2)C(c2ccccc2O)C(C(=O)NCc2ccccc2)=C(C)N1` were greater than 200 µM and 33.9 µM. `CSC1=C(C#N)C(c2ccccc2)CC(=O)N1` (stereo unspecified): the EC50 is greater than 200 µM and the half-inhibitory concentration (IC50) is greater than 200 µM.

Regarding `CC[C@@]12C=CC(=S)N(CCSc3ccccc3)[C@@H]1c1c(n(S(=O)(=O)c3ccc(OC)cc3)c3ccccc13)CC2`, the EC50 is greater than 126 µM and the IC50 was greater than 126 µM. On to `COc1ccc(C2=C/C(=C/c3ccc(O)cc3O)C(=O)O2)cc1`, for which the EC50 is greater than 200 µM and the IC50 was 36.3 µM. Taken in the same sequence, the figures for `NC1(CCCCCCCCCCC(=O)O)CNCCNCCNCCNC1` were greater than 437 µM and 3.47 µM. Taken in the same sequence, the figures for `Cc1cc2c(cc1C)C1=C(CCC2)C(=O)C(=O)O1` were greater than 200 µM and 110 µM.

`CC(C)c1cccc(C(C)C)c1N=C(N)C#N`: the EC50 is greater than 195 µM and the IC50 was determined as 93.3 µM. Taken in the same sequence, the figures for `O=C(O)c1ccc(-n2[se]c3ccccc3c2=O)cc1` were 7.24 µM and 20.4 µM. Taken in the same sequence, the figures for `CCN(CC)CCC(=O)c1ccc(C)cc1` were greater than 6170 µM and 331 µM. Taken in the same sequence, the figures for `COCn1cnc2c(=O)n(-c3ccc(OC)cc3)c(=S)n(-c3ccc(OC)cc3)c21` were greater than 200 µM and greater than 200 µM. For the compound `CCC(=O)C(CCN1CCC(N2C(=O)C(CCC#N)c3ccccc32)CC1)(c1ccccc1)c1ccccc1` (stereo unspecified), the EC50 was greater than 200 µM and the IC50 amounted to 28.8 µM. Taken in the same sequence, the figures for `CSSCc1ccccc1` were greater than 200 µM and 19.1 µM. Regarding `COc1ccc2[nH]c(C(=O)N3CC(CCl)c4c3cc(N)c3ccccc43)cc2c1` (stereo unspecified), the EC50 is greater than 0.2 µM and the IC50 amounted to 0.00158 µM. As for `CN1C(=O)N(C)C2(O)c3ccccc3C(=O)C12O` (stereo unspecified), the EC50 is greater than 1000 µM and the IC50 was greater than 1000 µM.

In the case of `CC(=O)c1c2c(cc3c1CC1(Cc4cc5c(cc4C1=O)CCC5)C3)CCC2` (stereo unspecified), the EC50 was greater than 200 µM and the IC50 was found to be 13.5 µM. Consider `CC1CC(=O)c2c(ccc3c2C(=O)c2cccc(O)c2C3=O)C1` (stereo unspecified), for which the outcome was inactive.

With `CC1(C)CCCCCCC2OC2CCCCCC(C)(C)C1=O` (stereo unspecified), the EC50 is greater than 200 µM and the half-inhibitory concentration (IC50) was determined as 38 µM. With `CC(=O)N=C1N(/C=C2\C(=O)Oc3ccccc3C2=O)C(=O)/C(=C/c2ccc(Cl)cc2Cl)N1C`, the EC50 was greater than 200 µM and the IC50 was 34.7 µM. Regarding `O=[N+]([O-])C(=C(Nc1ccccc1)Nc1ccccc1)/C(Cl)=C(\Cl)Br`, the EC50 was greater than 200 µM and the IC50 turned out to be 7.41 µM. For `CC(=O)Nc1ccc(N2C(=O)/C(=C\c3cccc(Oc4ccccc4)c3)S(=O)(=O)C2c2ccccc2)cc1` (stereo unspecified), the EC50 was greater than 200 µM and the IC50 is 26.9 µM. Taken in the same sequence, the figures for `Cc1cc2c(c(C)c1O)C(C)(C)CN2C(=O)C(C)(C)C` were greater than 200 µM and 74.1 µM. Taken in the same sequence, the figures for `C=C[C@@]1(C)CCC2(O)C(CCC3C2(C)CCC[C@@]3(C)COC(=O)CC(=O)OC)C1` (stereo partly specified) were greater than 24.5 µM and greater than 24.5 µM.

Regarding `CN(C)CC(O)CNC(=O)Nc1ccccc1` (stereo unspecified), the EC50 was greater than 200 µM and the IC50 was greater than 200 µM. Consider `CCOC(=O)/C(=C\c1cccc(Cl)c1)[Se]c1ccccc1`, for which the EC50 is greater than 14.1 µM and the IC50 was greater than 14.1 µM. Consider `Cc1nc2c(nc1C)C(=O)C(N)=CC2=O`, for which the result was inactive. For the compound `CN(C)c1ccc(C=Nc2ccc(Oc3ccc(Cl)cc3)c(Cl)c2)cc1`, the EC50 is greater than 200 µM and the 50% inhibitory concentration (IC50) amounted to 28.2 µM. Taken in the same sequence, the figures for `C=C([Si](C)(C)C)[Si](C)(C)C` were greater than 209 µM and greater than 209 µM.

With `Cc1cc2c(s1)C(N)CC2=O` (stereo unspecified), the EC50 was greater than 200 µM and the concentration for half-maximal inhibition (IC50) is greater than 200 µM. `COC(=O)[C@@H]1[C@@H]2NC(=S)N[C@@]1(C)Oc1ccccc12`: the result was inactive. For `NS(=O)(=O)c1ccc(Nc2c3ccccc3nc3c(C(=O)NCCO)cccc23)cc1`, the EC50 is greater than 200 µM and the IC50 came to 5.25 µM. In the case of `Cc1cn(C2C=CC(=O)C(C)O2)c(=O)[nH]c1=O` (stereo unspecified), the EC50 was greater than 1050 µM and the IC50 was determined as 6.31 µM. Taken in the same sequence, the figures for `Cc1sc2c(c1C)C(=O)c1cccn1-2` were greater than 200 µM and 170 µM.

With `COc1cccc(C2Nc3ccccc3C(=O)N2N2CCOCC2)c1` (stereo unspecified), the EC50 was greater than 200 µM and the IC50 was greater than 200 µM.

`NCC(=O)NC(CCCC(NC(=O)CN)P(=O)(O)O)P(=O)(O)O` (stereo unspecified): the outcome was inactive. On to `CC(=O)c1sc(Nc2ccc(S(=O)(=O)Nc3nc(C)cc(C)n3)cc2)nc1C`, for which the EC50 is greater than 200 µM and the IC50 stood at 112 µM. On to `O=C1OC(=O)C2C1C=C(c1ccccc1)C1C3C=CC(C4C(=O)OC(=O)C34)C21` (stereo unspecified), for which the EC50 is greater than 200 µM and the IC50 was greater than 200 µM. On to `ClCC[N+]12CC[N+](CCCl)(CC1)C2`, for which the result was inactive.

As to `CC(C)CNC(=O)CCc1cccc2c1oc1c(CCN)cccc12`, the EC50 was greater than 200 µM and the IC50 was determined as 14.8 µM. Taken in the same sequence, the figures for `CCc1cccc(C(C)C)c1NC(=O)C(=O)C(C(=O)C(=O)OC)c1nc2ccccc2[nH]c1=O` (stereo unspecified) were greater than 537 µM and 269 µM.

Regarding `CC1(C)CCc2cc3c(cc2O1)OCC1c2cc(O)c(OCc4ccccc4)cc2OC31` (stereo unspecified), the EC50 is greater than 200 µM and the IC50 stood at 23.4 µM. Taken in the same sequence, the figures for `COc1ccc2c(c1)OCC(O)(c1ccccc1)C2=O` (stereo unspecified) were greater than 200 µM and 155 µM. As to `CCN(CC)CCn1c(=O)c2ccccc2n2c3c(=O)n(C)c(=O)n(C)c3nc12`, the EC50 was greater than 20 µM and the IC50 worked out at 1.86 µM. In the case of `Nc1nnc[se]1`, the EC50 was greater than 200 µM and the IC50 turned out to be 3.63 µM.

Take `C=C(Cn1cnc2c(N)ncnc21)C(=O)OC`: the EC50 is greater than 107 µM and the half-maximal inhibitory concentration (IC50) is 7.76 µM.
